The text below walks through data of patent publication US8716303B2, “N-(hetero)aryl-pyrrolidine derivatives of pyrazol-4-yl-pyrrolo[2,3-d]pyrimidines and pyrrol-3-yl-pyrrolo[2,3-d]pyrimidines as janus kinase inhibitors” (Incyte Corporation, priority 2009, dated 2014).

One test deals with T1, Jak2 (a.a. 828-1132) (Homo sapiens, UniProt O60674).
T1 construct: Jak2 (a.a. 828-1132); His tag (N); made in house; host or cells: insect cells (baculovirus)
In words: In vitro JAK kinase assay (HTRF, phosphorylation of a biotinylated peptide), JAK2, reported as JAK2/JAK1 ratio. It counts as biochemical. How it is done:
(§1) Compounds herein were tested for inhibitory activity of JAK targets according to the following in vitro assay described in Park et al., Analytical Biochemistry 1999, 269, 94-104. The catalytic domains of human JAK1 (a.a. 837-1142), Jak2 (a.a. 828-1132) and Jak3 (a.a. 781-1124) with an N-terminal His tag were expressed using baculovirus in insect cells and purified. The catalytic activity of JAK1, JAK2 or JAK3 was assayed by measuring the phosphorylation of a biotinylated peptide. The phosphorylated peptide was detected by homogenous time resolved fluorescence (HTRF). IC50s of compounds were measured for each kinase in the 40 microL reactions that contain the enzyme, ATP and 500 nM peptide in 50 mM Tris (pH 7.8) buffer with 100 mM NaCl, 5 mM DTT, and 0.1 mg/mL (0.01%) BSA. The ATP concentration in the reactions was 90 μM for Jak1, 30 μM for Jak2 and 3 μM for Jak3 for Km conditions. For the 1 mM IC50 measurements, ATP concentration in the reactions was 1 mM. Reactions were carried out at RT for 1 h and then stopped with 20 μL 45 mM EDTA, 300 nM SA-APC, 6 nM Eu-Py20 in assay buffer (Perkin Elmer, Boston, Mass.). Binding to the Europium labeled antibody took place for 40 min and HTRF signal was measured on a Fusion plate reader (Perkin Elmer, Boston, Mass.).
(§2) Compounds herein were tested for inhibitory activity of JAK1 and JAK2 targets according to the assay of Example A (experiments run at Km or 1 mM as indicated). The symbol “+” indicates an IC50<50 nM; the symbol “++” indicates an IC50≧50 and ≦100 nM; and the symbol “+++” indicates an IC50>100 and ≦500 nM.

For test [1], the target named is T2, human JAK1 (a.a. 837-1142) (Homo sapiens, UniProt P23458).
T2 construct: human JAK1 (a.a. 837-1142); His tag (N); made in house; host or cells: insect cells (baculovirus)
T2 sequence (P23458 849-1154): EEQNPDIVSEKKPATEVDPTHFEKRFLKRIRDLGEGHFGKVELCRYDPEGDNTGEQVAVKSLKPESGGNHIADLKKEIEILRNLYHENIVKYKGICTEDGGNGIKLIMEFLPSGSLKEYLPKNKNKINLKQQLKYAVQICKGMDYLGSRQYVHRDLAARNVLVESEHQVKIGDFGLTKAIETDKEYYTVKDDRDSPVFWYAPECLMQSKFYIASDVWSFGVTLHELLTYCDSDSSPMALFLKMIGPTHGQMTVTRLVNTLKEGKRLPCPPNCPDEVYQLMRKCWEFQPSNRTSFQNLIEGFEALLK
In words: In vitro JAK kinase assay (HTRF, phosphorylation of a biotinylated peptide), JAK1. It counts as biochemical. How it is done:
as §1, §2
In general terms: In TR-FRET formats the signal depends on donor and acceptor labels being close together.

Structures can show the parent of a compound that is named as a salt. Where only a bound is given, the exact number is not on record here.

T1 sequence (O60674 828-1132): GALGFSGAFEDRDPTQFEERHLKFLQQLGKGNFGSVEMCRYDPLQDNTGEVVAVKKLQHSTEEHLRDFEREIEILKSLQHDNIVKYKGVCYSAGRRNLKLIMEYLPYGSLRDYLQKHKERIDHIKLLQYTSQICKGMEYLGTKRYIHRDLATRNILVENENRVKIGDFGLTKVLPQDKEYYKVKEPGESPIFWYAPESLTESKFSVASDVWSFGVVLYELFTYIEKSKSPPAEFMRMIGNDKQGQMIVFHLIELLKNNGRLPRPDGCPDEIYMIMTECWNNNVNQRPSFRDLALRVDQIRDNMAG

In general, IC50 refers to the concentration at which inhibition is half-maximal. High values mean weaker potency in that assay, low ones greater potency in that assay. Consider `N#CCC(C1CCN(c2ccnc(S)n2)C1)n1cc(-c2ncnc3[nH]ccc23)cn1` (single isomer, unassigned) [Example 150, 3-[1-(2-mercaptopyrimidin-4-yl)pyrrolidin-3-yl]-3-[4-(7H-pyrrolo[2,3-d]pyrimidin-4-yl)-1H-pyrazol-1-yl]propanenitrile], for which the “JAK2/JAK1 IC50 ratio” value at Jak2 (a.a. 828-1132) (Assay Conditions 1 mM ATP) was found to be 3.2. In test [1] (Assay Conditions 1 mM ATP), this molecule came in with an IC50 below 50 nM.
Taken in the same sequence, the figures for `N#CC[C@@H]([C@H]1CCN(c2cccc(Cl)c2C#N)C1)n1cc(-c2ncnc3[nH]ccc23)cn1` [Example 48, 2-chloro-6-((3S)-3-{(1S)-2-cyano-1-[4-(7H-pyrrolo[2,3-d]pyrimidin-4-yl)-1H-pyrazol-1-yl]ethyl}pyrrolidin-1-yl)benzonitrile trifluoroacetate] were above 30 and below 50 nM.
In the case of `COCc1cccc(N2CC[C@H]([C@H](CC#N)n3cc(-c4ncnc5[nH]ccc45)cn3)C2)c1C#N` [Example 112, 2-((S)-3-((S)-1-(4-(7H-pyrrolo[2,3-d]pyrimidin-4-yl)-1H-pyrazol-1-yl)-2-cyanoethyl)pyrrolidin-1-yl)-6-(methoxymethyl)benzonitrile], on Jak2 (a.a. 828-1132) (Assay Conditions 1 mM ATP), the “JAK2/JAK1 IC50 ratio” value came out at 35.7. In test [1] (Assay Conditions 1 mM ATP), the IC50 is below 50 nM.
As to `CCS(=O)(=O)c1cc(N2CCC(C(CC#N)n3ccc(-c4ncnc5[nH]ccc45)c3)C2)ccn1` (racemic) [Example 148-rac, 3-{1-[2-(ethylsulfonyl)pyridin-4-yl]pyrrolidin-3-yl}-3-[3-(7H-pyrrolo[2,3-d]pyrimidin-4-yl)-1H-pyrrol-1-yl]propanenitrile], the “JAK2/JAK1 IC50 ratio” value at Jak2 (a.a. 828-1132) (Assay Conditions 1 mM ATP) stood at 4.0. In test [1] (Assay Conditions 1 mM ATP), this molecule displayed an IC50 below 50 nM.
Taken in the same sequence, the figures for `COc1cccc2nc(N3CCC(C(CC#N)n4cc(-c5ncnc6[nH]ccc56)cn4)C3)oc12` (single isomer, unassigned) [Example 162, 3-[1-(7-methoxy-1,3-benzoxazol-2-yl)pyrrolidin-3-yl]-3-[4-(7H-pyrrolo[2,3-d]pyrimidin-4-yl)-1H-pyrazol-1-yl]propanenitrile] were 7.7 and below 50 nM.
`N#CCC(C1CCN(c2nc3c(F)cccc3o2)C1)n1cc(-c2ncnc3[nH]ccc23)cn1` (single isomer, unassigned) [Example 20, 3-[1-(4-fluoro-1,3-benzoxazol-2-yl)pyrrolidin-3-yl]-3-[4-(7H-pyrrolo[2,3-d]pyrimidin-4-yl)-1H-pyrazol-1-yl]propanenitrile]: the “JAK2/JAK1 IC50 ratio” value on Jak2 (a.a. 828-1132) (Assay Conditions 1 mM ATP) was 10.4. The IC50 in test [1] (Assay Conditions 1 mM ATP) is below 50 nM.
Taken in the same sequence, the figures for `N#CCC(C1CCN(c2ccc3cc[nH]c3n2)C1)n1cc(-c2ncnc3[nH]ccc23)cn1` (stereo not drawn) [Example 73, 3-(1-(1H-pyrrolo[2,3-b]pyridin-6-yl)pyrrolidin-3-yl)-3-(4-(7H-pyrrolo[2,3-d]pyrimidin-4-yl)-1H-pyrazol-1-yl)propanenitrile trifluoroacetate] were 1.7 and below 50 nM.
For `N#CCC(C1CCN(c2ccccc2C#N)C1)n1cc(-c2ncnc3[nH]ccc23)cn1` (stereo not drawn) [Example 52, 2-(3-{2-cyano-1-[4-(7H-pyrrolo[2,3-d]pyrimidin-4-yl)-1H-pyrazol-1-yl]ethyl}pyrrolidin-1-yl)benzonitrile trifluoroacetate salt], in that order: 2 and below 50 nM.
In the case of `N#CCC(C1CCN(c2nc3cccnc3o2)C1)n1ccc(-c2ncnc3[nH]ccc23)c1` (single isomer, unassigned) [32, Step 2a, enantiomer 1], the “JAK2/JAK1 IC50 ratio” value at Jak2 (a.a. 828-1132) (Assay Conditions Km (ATP 90 μM for Jak1, 30 μM for Jak2)) stood at 3.7. In addition, the IC50 in test [1] (Assay Conditions Km (ATP 90 μM for Jak1)) is below 50 nM.
Regarding `C#Cc1cnc(N2CC[C@H]([C@H](CC#N)n3cc(-c4ncnc5[nH]ccc45)cn3)C2)c(C#N)n1` [Example 143, 3-((3S)-3-{(1S)-2-cyano-1-[4-(7H-pyrrolo[2,3-d]pyrimidin-4-yl)-1H-pyrazol-1-yl]ethyl}pyrrolidin-1-yl)-6-ethynylpyrazine-2-carbonitrile trifluoroacetate], the “JAK2/JAK1 IC50 ratio” value at Jak2 (a.a. 828-1132) (Assay Conditions 1 mM ATP) is given as above 4.5. The IC50 in test [1] (Assay Conditions 1 mM ATP) is below 50 nM.
For `N#CCC(C1CCN(c2ccc3c(n2)OCC3)C1)n1cc(-c2ncnc3[nH]ccc23)cn1` (single isomer, unassigned) [Example 155, 3-[1-(2,3-dihydrofuro[2,3-b]pyridin-6-yl)pyrrolidin-3-yl]-3-[4-(7H-pyrrolo[2,3-d]pyrimidin-4-yl)-1H-pyrazol-1-yl]propanenitrile], in that order: 5.3 and 50 to 100 nM.
For `N#CC[C@@H]([C@H]1CCN(c2ncc3ncsc3n2)C1)n1cc(-c2ncnc3[nH]ccc23)cn1` [Example 102, (3S)-3-[4-(7H-pyrrolo[2,3-d]pyrimidin-4-yl)-1H-pyrazol-1-yl]-3-[(3S)-1-[1,3]thiazolo[5,4-d]pyrimidin-5-ylpyrrolidin-3-yl]propanenitrile bis(trifluoroacetate)], in that order: 12.8 and below 50 nM.
Turning to `N#CCC(C1CCN(c2ccc3ccsc3n2)C1)n1cc(-c2ncnc3[nH]ccc23)cn1` (single isomer, unassigned) [Example 156, 3-[4-(7H-pyrrolo[2,3-d]pyrimidin-4-yl)-1H-pyrazol-1-yl]-3-(1-thieno[2,3-b]pyridin-6-ylpyrrolidin-3-yl)propanenitrile], the “JAK2/JAK1 IC50 ratio” value at Jak2 (a.a. 828-1132) (Assay Conditions 1 mM ATP) amounted to 8.0. In test [1] (Assay Conditions 1 mM ATP), this molecule returned an IC50 below 50 nM.
For `N#CCC(C1CCN(c2ncc3ccoc3c2C#N)C1)n1ccc(-c2ncnc3[nH]ccc23)c1` (racemic) [Example 170-rac, 6-(3-{2-cyano-1-[3-(7H-pyrrolo[2,3-d]pyrimidin-4-yl)-1H-pyrrol-1-yl]ethyl}pyrrolidin-1-yl)furo[3,2-c]pyridine-7-carbonitrile], in that order: 4.5 and below 50 nM.
For `N#Cc1nnccc1N1CC[C@H](C(CF)n2cc(-c3ncnc4[nH]ccc34)cn2)C1` (single isomer, unassigned) [Example 116], in that order: 6.0 and below 50 nM.
For `N#CC[C@@H]([C@H]1CCN(c2ncc3sccc3c2C#N)C1)n1cc(-c2ncnc3[nH]ccc23)cn1` [Example 74, 5-((3S)-3-{(1S)-2-cyano-1-[4-(7H-pyrrolo[2,3-d]pyrimidin-4-yl)-1H-pyrazol-1-yl]ethyl}pyrrolidin-1-yl)thieno[2,3-c]pyridine-4-carbonitrile], in that order: 6.2 and below 50 nM.
`N#CC[C@@H]([C@H]1CCN(c2ncc(CO)nc2C#N)C1)n1cc(-c2ncnc3[nH]ccc23)cn1` [Example 140, 3-((3S)-3-{(1S)-2-cyano-1-[4-(7H-pyrrolo[2,3-d]pyrimidin-4-yl)-1H-pyrazol-1-yl]ethyl}pyrrolidin-1-yl)-6-(hydroxymethyl)pyrazine-2-carbonitrile trifluoroacetate]: the “JAK2/JAK1 IC50 ratio” value at Jak2 (a.a. 828-1132) (Assay Conditions 1 mM ATP) came to 17.4. In test [1] (Assay Conditions 1 mM ATP), this molecule had an IC50 below 50 nM.
Taken in the same sequence, the figures for `N#CCC(C1CCN(c2nc3c(O)cccc3o2)C1)n1cc(-c2ncnc3[nH]ccc23)cn1` (single isomer, unassigned) [Example 165, 3-[1-(4-hydroxy-1,3-benzoxazol-2-yl)pyrrolidin-3-yl]-3-[4-(7H-pyrrolo[2,3-d]pyrimidin-4-yl)-1H-pyrazol-1-yl]propanenitrile] were 7.1 and below 50 nM.
